In publication PMC12723578 (Archiv Der Pharmazie, 2025):
Values joined by “and” are separate entries in the source; they are usually repeats but may differ in a detail not shown here. Equal values may be shown once. Where a name gives a salt, the structure may show the parent alone. Read-outs that look alike come from different tables or passages of the source.

Key:
[1] = target: T1, SARS‐CoV‐2 M^pro (Severe acute respiratory syndrome coronavirus 2, UniProt P0DTD1); assay: Screening of M^pro inhibition at 10 and 50 µM (fluorogenic substrate Boc‐Abu‐Tle‐Leu‐Gln‐AMC); type: biochemical; details: for M^pro inhibition (in words): screened at 10 and 50 µM
[2] = target: T1, SARS‐CoV‐2 M^pro; assay: Investigation of inhibition reversibility by jump dilution; type: biochemical; details: 25 min preincubation, 100‐fold jump dilution
[3] = target: T1, SARS‐CoV‐2 M^pro; assay: Determination of k inac/K i for irreversible inhibitors; type: biochemical; details: for k inac/K i: second‐order rate constant of enzyme inactivation, reactions monitored for 60 min
[4] = in vitro; details: human
[5] = In vitro stability in human plasma; type: in vitro ADME; details: plasma diluted to 80% with sodium phosphate buffer, pH 7.4, male human plasma, 37°C, read-out: plasma half‐life t 1/2
Description: For the investigation of the in vitro stability of 12 in human plasma, 100 µM of the M^pro inhibitor was incubated with male human plasma at 37°C for five different time periods.
A volume of 30 µL of a 2 mM compound stock solution in DMSO was mixed with 570 µL of a male human plasma solution (Biomol GmbH, Hamburg, Germany) that was diluted to 80% with 0.05 M sodium phosphate buffer, pH 7.4, and prewarmed at 37°C. The final compound concentration was 100 µM, and the DMSO concentration was 5% (v/v). The mixture was divided into aliquots of 100 µL, which were incubated for different time periods and subsequently quenched by the addition of 200 µL of a 0.05 mg/mL reserpine (internal standard) and 2% AcOH (v/v) solution in MeOH. The samples were vortexed for 1 min, stored on ice for 15 min, and subsequently centrifuged at 15,000 rpm and 4°C for 2 min. After filtration through a 0.45 µm polytetrafluoroethylene membrane filter, the resulting solutions were analyzed by HPLC (Jasco Deutschland GmbH, Pfungstadt, Germany). […] The residual proportion was plotted versus incubation time and non‐linear regression according to Y(t) = Y 0 × e^ (‐kt) provided the first‐order rate constant of degradation k, with Y 0 being the compound proportion at t = 0 and Y(t) the residual proportion after a specific incubation time t. Equation t 1/2 = ln2/k afforded the plasma half‐life t 1/2 (n = 2).

[6] = tested on: A549‐ACE2 cells; details: up to 100 µM
[7] = target: T1, SARS‐CoV‐2 M^pro; assay: Determination of IC50 and K i values; type: biochemical; details: for Ki: calculated from IC50 with the Cheng‐Prusoff equation
[8] = tested on: SARS‐CoV‐2; assay: Cellular antiviral activity, virus plaque assay in A549‐ACE2 cells; type: cell-based
[9] = Stability in aqueous media
[10] = phase I study, single‐dose treatment, fasted conditions, without ritonavir coadministration; cited from earlier work
[11] = tested on: SARS‐CoV‐2; details: A549‐ACE2 cells; cited from earlier work
[12] = read-out: Inhibition @ [I] = 10 µM (%)
[13] = read-out: Inhibition @ [I] = 50 µM (%)
[14] = [I] = 50 µM, product formation determined after 10 min
[15] = product formation determined after 10 min
[16] = [I] = 10 µM, product formation determined after 10 min

| Compound | inhibition at 10 µM [1, 12] [%] | inhibition at 50 µM [1, 13] [%] | M^pro inhibition (in words) [1] | M^pro inhibition reversibility [2] | further results |
| --- | --- | --- | --- | --- | --- |
| CN(NC(=O)[C@H](Cc1ccccc1)NC(=O)OCc1ccccc1)C(=O)C(F)(F)Cl [Compound 9, Benzyl (S)‐{1‐[2‐(2‐chloro‐2,2‐difluoroacetyl)‐2‐methylhydrazineyl]‐1‐oxo‐3‐phenylpropan‐2‐yl}carbamate] | 9 | 15 | failed to strongly inhibit |  |  |
| CC(C)(C)[C@H](NC(=O)c1cccs1)C(=O)N[C@@H](Cc1ccccc1)C(=O)NN(Cc1cccc(Cl)c1)C(=O)CCl [Compound 12, N‐{[S]‐1‐[({S}‐1‐{2‐(2‐Chloroacetyl)‐2‐(3‐chlorobenzyl)hydrazineyl}‐1‐oxo‐3‐phenylpropan‐2‐yl)amino]‐3,3‐dimethyl‐1‐oxobutan‐2‐yl}thiophene‐2‐carboxamide] |  |  |  | irreversible | improvement of k inac/K i value versus 14 ([3]; 12 compared with 14): 50 fold; k inac/K i [3]: 78,900 M^−1s^−1 and 78,900 ± 12,800 M^−1s^−1 and 100% inhibition @ 50 µM^a Ki = 0.0230 µM^b kinac/Ki = 78,900 M^-1s^-1 c EC50 = 0.47 µM^d M^−1s^−1; CC50 at 24 h [4]: > 100 µM; half-life at 100 µM [5]: 1.6 ± 0.148 h; inhibition at 50 µM [1, 14]: 100%; cytotoxicity [6]: no cytotoxicity; Ki [7]: 0.023 ± 0.0017 µM; IC50 [7, 15]: 0.0466 ± 0.0034 µM; EC50 ([8]; Severe acute respiratory syndrome coronavirus 2, A549‐ACE2 cells, MOI 0.1, 24 h postinfection, plaque assay, read-out: EC50): 0.47 µM |
| CN(NC(=O)[C@H](Cc1ccccc1)NC(=O)OCc1ccccc1)C(=O)C(Cl)Cl [Compound 7, Benzyl (S)‐{1‐[2‐(2,2‐dichloroacetyl)‐2‐methylhydrazineyl]‐1‐oxo‐3‐phenylpropan‐2‐yl}carbamate] |  |  |  | reversible | inhibition at 10 µM [1, 16]: 85%; inhibition at 50 µM [1, 14]: 100%; Ki [7]: 1.22 ± 0.09 µM; IC50 [7, 15]: 2.47 ± 0.18 µM |
| Cn1cnc(Cn2c(=O)[nH]/c(=N\c3cc4cn(C)nc4cc3Cl)n(Cc3cc(F)c(F)cc3F)c2=O)n1 [ensitrelvir, reference compound] |  |  |  |  | CC50 [4]: > 100 µM; EC50 ([8]; Severe acute respiratory syndrome coronavirus 2, A549-ACE2, 24 h): 0.028 µM |
| CCOC(=O)N(C)NC(=O)[C@H](Cc1ccccc1)NC(=O)OCc1ccccc1 [Compound 3, Ethyl 2‐{[(N‐benzyloxy)carbonyl]‐L‐phenylalanyl}‐1‐5;methylhydrazine‐1‐carboxylate] | 2 | 3 | did not cause protease inhibition |  |  |
| CN(NC(=O)[C@H](Cc1ccccc1)NC(=O)OCc1ccccc1)C(=O)C(F)Cl (stereo partly shown) [Compound 8, Benzyl {[2S]‐1‐[2‐(2‐chloro‐2‐fluoroacetyl)‐2‐methylhydrazinyl]‐1‐oxo‐3‐phenylpropan‐2‐yl}carbamate] | 10 | 16 | failed to strongly inhibit |  |  |
| CN(NC(=O)[C@H](Cc1ccccc1)NC(=O)OCc1ccccc1)S(=O)(=O)F [Compound 11, Benzyl (S)‐{1‐[2‐(fluorosulfonyl)‐2‐methylhydrazineyl]‐1‐oxo‐3‐phenylpropan‐2‐yl}carbamate] | 40 |  |  | irreversible | k inac/K i [3]: 54.6 ± 25.0 M⁻¹ s⁻¹ and 54.6 M⁻¹ s⁻¹; stability in aqueous media [9]: not sufficiently stable; IC50 [7]: 14.7 ± 0.7 µM; Ki [7]: 7.24 ± 0.34 µM |
| COC(=O)/C=C(\C(=O)OC)N(C)NC(=O)[C@H](Cc1ccccc1)NC(=O)OCc1ccccc1 [Compound 2, Dimethyl 2‐{2‐[({benzyloxy}carbonyl)‐L‐phenylalanyl]‐1‐methylhydrazineyl}maleate] | 1 | 2 | inactive |  |  |
| CN(NC(=O)[C@H](Cc1ccccc1)NC(=O)OCc1ccccc1)C(=O)CCl [Compound 6, Benzyl (S)‐{1‐[2‐(2‐chloroacetyl)‐2‐methylhydrazineyl]‐1‐oxo‐3‐phenylpropan‐2‐yl}carbamate] |  |  |  | irreversible | inhibition at 10 µM [1, 16]: 19%; inhibition at 50 µM [1, 14]: 55%; Ki [7]: 14.8 ± 0.8 µM; IC50 [7, 15]: 30.1 ± 1.7 µM |
| CN(CC#N)NC(=O)[C@H](Cc1ccccc1)NC(=O)OCc1ccccc1 [Compound 10, Benzyl (S)‐{1‐[2‐(cyanomethyl)‐2‐methylhydrazineyl]‐1‐oxo‐3‐phenylpropan‐2‐yl}carbamate] | 10 | 11 | did not exhibit notable inhibitory properties |  |  |
| COC(=O)/C=C/N(C)NC(=O)[C@H](Cc1ccccc1)NC(=O)OCc1ccccc1 [Compound 1, Methyl (E)‐3‐{2‐[({benzyloxy}carbonyl)‐L‐phenylalanyl]‐1‐methylhydrazineyl}acrylate] | 4 | 0 | inactive |  |  |
| CCOC(=O)/C=C/C(=O)N(C)NC(=O)[C@H](Cc1ccccc1)NC(=O)OCc1ccccc1 [Compound 5, Ethyl (E)‐4‐{2‐[({benzyloxy}carbonyl)‐L‐phenylalanyl]‐1‐methylhydrazineyl}‐4‐oxobut‐2‐enoate] | 7 | 13 | did not cause protease inhibition |  |  |
| CC(C)(C)[C@H](NC(=O)C(F)(F)F)C(=O)N1C[C@H]2[C@@H]([C@H]1C(=O)N[C@H](C#N)C[C@@H]1CCNC1=O)C2(C)C [nirmatrelvir] |  |  |  |  | plasma half‐life [10]: 2.03 h; EC50 [11]: 0.054 µM |
| CC(C)(C)[C@H](NC(=O)c1cccs1)C(=O)N[C@@H](Cc1ccccc1)C(=O)NN(Cc1cccc(Cl)c1)C(=O)C(Cl)Cl [Compound 13, N‐{[S]‐1‐[({S}‐1‐{2‐(3‐Chlorobenzyl)‐2‐(2,2‐dichloroacetyl)hydrazineyl}‐1‐oxo‐3‐phenylpropan‐2‐yl)amino]‐3,3‐dimethyl‐1‐oxobutan‐2‐yl}thiophene‐2‐carboxamide] |  | < 50 |  | Reversible |  |
| COC(=O)CC(=O)N(C)NC(=O)[C@H](Cc1ccccc1)NC(=O)OCc1ccccc1 [Compound 4, Methyl 3‐{2‐[({benzyloxy}carbonyl)‐L‐phenylalanyl]‐1‐6;methylhydrazineyl}‐3‐oxopropanoate] | 0 | 0 | inactive |  |  |
| CC(C)(C)[C@H](NC(=O)c1cccs1)C(=O)N[C@@H](Cc1ccccc1)C(=O)NN(Cc1cccc(Cl)c1)C(=O)C(F)Cl (mixture of isomers) [Compound 14, N‐{[2S]‐1‐[({2S}‐1‐{2‐(2‐Chloro‐2‐fluoroacetyl)‐2‐(3‐chlorobenzyl)hydrazineyl}‐1‐oxo‐3 phenylpropan‐2‐yl)amino]‐3,3‐dimethyl‐1‐oxobutan‐2‐yl}thiophene‐2‐carboxamide] |  | 69 |  | irreversible | Ki [7]: 4.34 ± 0.6 µM; IC50 [7, 15]: 8.82 ± 1.22 µM |
| CCN(CC)CCOC(=O)c1ccc(N)cc1 [Procaine hydrochloride, reference compound] |  |  |  |  | half-life at 100 µM [5]: 0.13 ± 0.0157 h |
